# Assay results taken from the supplement of paper PMC11451515.
# Tested on: NOMO1
# Assay: cell viability relative to DMSO control; higher = less cytotoxic
# Conditions: 48 h
# Summary of the method: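 Library compounds in DMSO were pin-dosed in an 11-point threefold series (47 μM to 0.79 nM) onto leukemia cells in 1536-well plates (5 μl). Plates held 500 cells/well of NOMO1 or SEM or 1000 cells/well of P12-Ichikawa, each adapted for at least four passages in each medium. Luminescence was read with CellTiter-Glo One after 48 h at 37°C. Viability means the per-plate percentage relative to DMSO wells, using cell-free wells as background.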
# [1] = RPMI 5 mM glucose + 10% FBS, 0.000781 µM
# [2] = RPMI 5 mM glucose + 10% FBS, 0.00234 µM
# [3] = RPMI 5 mM glucose + 10% FBS, 0.00702 µM
# [4] = RPMI 5 mM glucose + 10% FBS, 0.0211 µM
# [5] = RPMI 5 mM glucose + 10% FBS, 0.0632 µM
# [6] = RPMI 5 mM glucose + 10% FBS, 0.19 µM
# [7] = RPMI 5 mM glucose + 10% FBS, 0.569 µM
# [8] = RPMI 5 mM glucose + 10% FBS, 1.71 µM
# [9] = RPMI 5 mM glucose + 10% FBS, 5.12 µM
# [10] = RPMI 5 mM glucose + 10% FBS, 15.4 µM
# [11] = RPMI 5 mM glucose + 10% FBS, 46.1 µM
# [12] = HPLM + 10% dialyzed FBS, 0.000781 µM
# [13] = HPLM + 10% dialyzed FBS, 0.00234 µM
# [14] = HPLM + 10% dialyzed FBS, 0.00702 µM
# [15] = HPLM + 10% dialyzed FBS, 0.0211 µM
# [16] = HPLM + 10% dialyzed FBS, 0.0632 µM
# [17] = HPLM + 10% dialyzed FBS, 0.19 µM
# [18] = HPLM + 10% dialyzed FBS, 0.569 µM
# [19] = HPLM + 10% dialyzed FBS, 1.71 µM
# [20] = HPLM + 10% dialyzed FBS, 5.12 µM
# [21] = HPLM + 10% dialyzed FBS, 15.4 µM
# [22] = HPLM + 10% dialyzed FBS, 46.1 µM
# [23] = RPMI 5 mM glucose + 10% dialyzed FBS, 0.000781 µM
# [24] = RPMI 5 mM glucose + 10% dialyzed FBS, 0.00234 µM
# [25] = RPMI 5 mM glucose + 10% dialyzed FBS, 0.00702 µM
# [26] = RPMI 5 mM glucose + 10% dialyzed FBS, 0.0211 µM
# [27] = RPMI 5 mM glucose + 10% dialyzed FBS, 0.0632 µM
# [28] = RPMI 5 mM glucose + 10% dialyzed FBS, 0.19 µM
# [29] = RPMI 5 mM glucose + 10% dialyzed FBS, 0.569 µM
# [30] = RPMI 5 mM glucose + 10% dialyzed FBS, 1.71 µM
# [31] = RPMI 5 mM glucose + 10% dialyzed FBS, 5.12 µM
# [32] = RPMI 5 mM glucose + 10% dialyzed FBS, 15.4 µM
# [33] = RPMI 5 mM glucose + 10% dialyzed FBS, 46.1 µM
compound,measurement,setting,value
C=CCc1cccc(/C=N/NC(=O)CN2CCN(Cc3ccccc3)CC2)c1O,cell viability,[1],120%
same,cell viability,[2],115%
same,cell viability,[3],108%
same,cell viability,[4],119%
same,cell viability,[5],116%
same,cell viability,[6],109%
same,cell viability,[7],114%
same,cell viability,[8],100%
same,cell viability,[9],115%
same,cell viability,[10],96.5%
same,cell viability,[11],8.9%
COc1cc([C@H]2Oc3cc([C@H]4Oc5cc(O)cc(O)c5C(=O)[C@@H]4O)ccc3O[C@@H]2CO)ccc1O,cell viability,[12],103%
same,cell viability,[13],122%
same,cell viability,[14],119%
same,cell viability,[15],126%
same,cell viability,[16],120%
same,cell viability,[17],123%
same,cell viability,[18],125%
same,cell viability,[19],95.9%
same,cell viability,[20],106%
same,cell viability,[21],119%
same,cell viability,[22],82%
same,cell viability,[1],105%
same,cell viability,[2],124%
same,cell viability,[3],118%
same,cell viability,[4],110%
same,cell viability,[5],114%
same,cell viability,[6],116%
same,cell viability,[7],111%
same,cell viability,[8],100%
same,cell viability,[9],111%
same,cell viability,[10],115%
same,cell viability,[11],103%
same,cell viability,[23],104%
same,cell viability,[24],121%
same,cell viability,[25],115%
same,cell viability,[26],119%
same,cell viability,[27],118%
same,cell viability,[28],100%
same,cell viability,[29],102%
same,cell viability,[30],109%
same,cell viability,[31],106%
same,cell viability,[32],110%
same,cell viability,[33],101%
CC(C)c1cnn2c(NCc3ccccc3)cc(NCCCCCCN)nc12,cell viability,[1],115%
same,cell viability,[2],107%
same,cell viability,[3],117%
same,cell viability,[4],121%
same,cell viability,[5],109%
same,cell viability,[6],122%
same,cell viability,[7],112%
same,cell viability,[8],114%
same,cell viability,[9],116%
same,cell viability,[10],106%
same,cell viability,[11],101%
same,cell viability,[23],115%
same,cell viability,[24],116%
same,cell viability,[25],104%
same,cell viability,[26],125%
same,cell viability,[27],119%
same,cell viability,[28],118%
same,cell viability,[29],114%
same,cell viability,[30],107%
same,cell viability,[31],110%
same,cell viability,[32],101%
same,cell viability,[33],110%
Cc1[nH]c(/C=C2\C(=O)Nc3ccccc32)c(C)c1CCC(=O)O,cell viability,[12],92.3%
same,cell viability,[13],101%
same,cell viability,[14],108%
same,cell viability,[15],114%
same,cell viability,[16],113%
same,cell viability,[17],106%
same,cell viability,[18],99.9%
same,cell viability,[19],118%
same,cell viability,[20],105%
same,cell viability,[21],51.3%
same,cell viability,[22],23.8%
same,cell viability,[1],95.9%
same,cell viability,[2],112%
same,cell viability,[3],108%
same,cell viability,[4],114%
same,cell viability,[5],115%
same,cell viability,[6],123%
same,cell viability,[7],111%
same,cell viability,[8],104%
same,cell viability,[9],110%
same,cell viability,[10],58.7%
same,cell viability,[11],18.4%
same,cell viability,[23],97%
same,cell viability,[24],118%
same,cell viability,[25],96.1%
same,cell viability,[26],98.1%
same,cell viability,[27],113%
same,cell viability,[28],106%
same,cell viability,[29],102%
same,cell viability,[30],109%
same,cell viability,[31],103%
same,cell viability,[32],101%
same,cell viability,[33],22.7%
N#Cc1ccnc(Nc2cc(C3CCN(C4COC4)CC3)cc(N3CCC(F)(F)C3)n2)c1,cell viability,[12],121%
same,cell viability,[13],109%
same,cell viability,[14],119%
same,cell viability,[15],114%
same,cell viability,[16],103%
same,cell viability,[17],110%
same,cell viability,[18],114%
same,cell viability,[19],124%
same,cell viability,[20],127%
same,cell viability,[21],53.2%
same,cell viability,[22],10.6%
same,cell viability,[1],101%
same,cell viability,[2],99.7%
same,cell viability,[3],106%
same,cell viability,[4],106%
same,cell viability,[5],93.6%
same,cell viability,[6],108%
same,cell viability,[7],105%
same,cell viability,[8],102%
same,cell viability,[9],107%
same,cell viability,[10],44.7%
same,cell viability,[11],11.3%
same,cell viability,[23],108%
same,cell viability,[24],91.6%
same,cell viability,[25],110%
same,cell viability,[26],102%
same,cell viability,[27],96.2%
same,cell viability,[28],107%
same,cell viability,[29],98.7%
same,cell viability,[30],108%
same,cell viability,[31],107%
same,cell viability,[32],39.1%
same,cell viability,[33],9.87%
O=C(Oc1ccc([N+](=O)[O-])cc1)N1CCC(C(O)(c2ccc3c(c2)OCO3)c2ccc3c(c2)OCO3)CC1,cell viability,[12],102%
same,cell viability,[13],95.5%
same,cell viability,[14],93%
same,cell viability,[15],119%
same,cell viability,[16],107%
same,cell viability,[17],92.3%
same,cell viability,[18],107%
same,cell viability,[19],88.5%
same,cell viability,[20],85.3%
same,cell viability,[21],89.8%
same,cell viability,[22],58.4%
same,cell viability,[1],87.7%
same,cell viability,[2],87.7%
same,cell viability,[3],83%
same,cell viability,[4],91.8%
same,cell viability,[5],96.6%
same,cell viability,[6],90.1%
same,cell viability,[7],86.2%
same,cell viability,[8],86.3%
same,cell viability,[9],88.3%
same,cell viability,[10],88.4%
same,cell viability,[11],89.2%
same,cell viability,[23],73.1%
same,cell viability,[24],73.3%
same,cell viability,[25],86%
same,cell viability,[26],80.4%
same,cell viability,[27],90.3%
same,cell viability,[28],77.9%
same,cell viability,[29],84.2%
same,cell viability,[30],71%
same,cell viability,[31],65.6%
same,cell viability,[32],74.6%
same,cell viability,[33],74.5%
CC1=C(CC(=O)O)c2cc(F)ccc2/C1=C\c1ccc([S+](C)[O-])cc1 (stereo not drawn),cell viability,[12],121%
same,cell viability,[13],122%
same,cell viability,[14],106%
same,cell viability,[15],123%
same,cell viability,[16],125%
same,cell viability,[17],107%
same,cell viability,[18],140%
same,cell viability,[19],99.6%
same,cell viability,[20],103%
same,cell viability,[21],101%
same,cell viability,[22],113%
same,cell viability,[1],125%
same,cell viability,[2],118%
same,cell viability,[3],105%
same,cell viability,[4],132%
same,cell viability,[5],115%
same,cell viability,[6],110%
same,cell viability,[7],112%
same,cell viability,[8],113%
same,cell viability,[9],114%
same,cell viability,[10],110%
same,cell viability,[11],112%
same,cell viability,[23],128%
same,cell viability,[24],119%
same,cell viability,[25],119%
same,cell viability,[26],123%
same,cell viability,[27],139%
same,cell viability,[28],139%
same,cell viability,[29],119%
same,cell viability,[30],109%
same,cell viability,[31],104%
same,cell viability,[32],107%
same,cell viability,[33],99.6%
Cc1ccc([S+](=O)([O-])Nc2nc3ccccc3nc2Nc2ccc3nsnc3c2)cc1,cell viability,[12],97.3%
same,cell viability,[13],106%
same,cell viability,[14],114%
same,cell viability,[15],104%
same,cell viability,[16],116%
same,cell viability,[17],110%
same,cell viability,[18],111%
same,cell viability,[19],72.5%
same,cell viability,[20],21.3%
same,cell viability,[21],18%
same,cell viability,[22],13.1%
same,cell viability,[1],89.2%
same,cell viability,[2],94.4%
same,cell viability,[3],89.2%
same,cell viability,[4],108%
same,cell viability,[5],101%
same,cell viability,[6],119%
same,cell viability,[7],96.7%
same,cell viability,[8],78.5%
same,cell viability,[9],14%
same,cell viability,[10],11.5%
same,cell viability,[11],7.49%
same,cell viability,[23],84.8%
same,cell viability,[24],88.7%
same,cell viability,[25],106%
same,cell viability,[26],91.8%
same,cell viability,[27],111%
same,cell viability,[28],99.2%
same,cell viability,[29],92.8%
same,cell viability,[30],96.1%
same,cell viability,[31],20.7%
same,cell viability,[32],15.9%
same,cell viability,[33],12.7%
C[S+](=O)([O-])c1cccc(CNc2nc(Nc3ccc4c(c3)CCC(=O)N4)ncc2C(F)(F)F)c1,cell viability,[1],99.6%
same,cell viability,[2],113%
same,cell viability,[3],116%
same,cell viability,[4],115%
same,cell viability,[5],108%
same,cell viability,[6],114%
same,cell viability,[7],113%
same,cell viability,[8],100%
same,cell viability,[9],93.3%
same,cell viability,[10],91.6%
same,cell viability,[11],53.9%
same,cell viability,[23],107%
same,cell viability,[24],109%
same,cell viability,[25],114%
same,cell viability,[26],129%
same,cell viability,[27],99.9%
same,cell viability,[28],115%
same,cell viability,[29],105%
same,cell viability,[30],111%
same,cell viability,[31],108%
same,cell viability,[32],86.1%
same,cell viability,[33],58.9%
